Source: patent US12319655B2, “RAF kinase inhibitors and methods of use thereof” (Deciphera Pharmaceuticals, LLC, priority 2021, dated 2025)

How the values were obtained:
[1] = molecular target: C-Raf kinase (SEQ. ID NO: 3) (Homo sapiens (Human), UniProt P04049, Y340D/Y341D); assay: Biochemical Assay for C-Raf (1); settings: Table J, assay version (1); read-out: CRAF (1) IC50
Procedure: Biochemical Assay for C-Raf (1)
(§1) Activity of C-Raf kinase (SEQ. ID NO: 3) was determined spectroscopically using a coupled pyruvate kinase/lactate dehydrogenase assay that continuously monitors the ATP hydrolysis-dependent oxidation of NADH (e.g., Schindler et al., Science, 2000, 289, 1938-1942). Assays were conducted in 384-well plates (100 μL final volume) using 0.43 nM C-Raf (Sigma), 1.5 units pyruvate kinase, 2.1 units lactate dehydrogenase, 1 mM phosphoenol pyruvate, 0.28 mM NADH, 30.1 nM MEK (SignalChem), and 1 mM ATP in assay buffer (100 mM Tris, Ph 7.5, 15 mM MgCl2, 0.5 mM DTT, 0.1% octyl-glucoside, 0.002% (w/v) BSA, and 0.002% Triton X-100). Inhibition of C-Raf was measured by adding serial diluted test compound (final assay concentration of 1% DMSO). A decrease in absorption at 340 nm was monitored continuously for 6 h at 30° C. on a multi-mode microplate reader (BioTek). The reaction rate was calculated using the 4 to 5 h time frame. The reaction rate at each concentration of compound was converted to percent inhibition using controls (i.e., reaction with no test compound and reaction with a known inhibitor) and IC50 values were calculated by fitting a four-parameter sigmoidal curve to the data using Prism (GraphPad software).

[2] = molecular target: A-Raf kinase (SEQ. ID No: 1) (Homo sapiens (Human), UniProt P10398, Y301D/Y302D); assay: Biochemical Assay for A-Raf (1); settings: Table J, assay version (1); read-out: ARAF (1) IC50
Procedure: Biochemical Assay for A-Raf (1)
as §1, with “A-Raf” for “C-Raf”, “No: 1)” for “NO: 3)”, “5.55” for “0.43”, “pH” for “Ph”

[3] = molecular target: B-Raf kinase (SEQ. ID NO: 2) (Homo sapiens (Human), UniProt P15056); assay: Biochemical Assay for B-Raf (1); settings: Table J, assay version (1); read-out: BRAF (1) IC50
Procedure: Biochemical Assay for B-Raf (1)
as §1, with “B-Raf” for “C-Raf”, “2)” for “3)”, “0.13” for “0.43”

[4] = molecular target: B-Raf (V600E) (SEQ. ID NO: 4) kinase (Homo sapiens (Human), UniProt P15056, V600E); assay: Biochemical Assay for B-Raf (V600E) (1); settings: Table J, BRAF V600E, assay version (1); read-out: BRAF VE (1) IC50
Procedure: Biochemical Assay for B-Raf (V600E) (1)
Activity of B-Raf (V600E) (SEQ. ID NO: 4) kinase was determined spectroscopically using a coupled pyruvate kinase/lactate dehydrogenase assay that continuously monitors the ATP hydrolysis-dependent oxidation of NADH (e.g., Schindler et al., Science, 2000, 289, 1938-1942). Assays were conducted in 384-well plates (100 μL final volume) using 0.03 nM B-Raf (SignalChem), 1.5 units pyruvate kinase, 2.1 units lactate dehydrogenase, 1 mM phosphoenol pyruvate, 0.28 mM NADH, 30.1 nM MEK (SignalChem), and 1 mM ATP in assay buffer (100 mM Tris, Ph 7.5, 15 mM MgCl2, 0.5 mM DTT, 0.1% octyl-glucoside, 0.002% (w/v) BSA, and 0.002% Triton X-100). Inhibition of B-Raf (V600E) was measured by adding serial diluted test compound (final assay concentration of 1% DMSO). A decrease in absorption at 340 nm was monitored continuously for 6 h at 30° C. on a multi-mode microplate reader (BioTek). The reaction rate was calculated using the 3 to 4 h time frame. The reaction rate at each concentration of compound was converted to percent inhibition using controls (i.e., reaction with no test compound and reaction with a known inhibitor) and IC50 values were calculated by fitting a four-parameter sigmoidal curve to the data using Prism (GraphPad software).

Chain of C-Raf kinase (SEQ. ID NO: 3) (P04049 307-648 Y340D/Y341D): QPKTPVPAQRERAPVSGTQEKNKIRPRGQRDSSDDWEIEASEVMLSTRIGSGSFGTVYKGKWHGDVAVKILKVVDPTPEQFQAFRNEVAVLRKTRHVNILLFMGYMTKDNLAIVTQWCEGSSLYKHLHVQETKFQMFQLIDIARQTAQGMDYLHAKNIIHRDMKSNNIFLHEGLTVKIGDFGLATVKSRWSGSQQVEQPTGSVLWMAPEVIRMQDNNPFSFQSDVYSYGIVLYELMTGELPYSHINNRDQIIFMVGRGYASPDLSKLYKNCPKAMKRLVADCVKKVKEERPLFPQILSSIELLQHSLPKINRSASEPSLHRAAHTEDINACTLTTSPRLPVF
Chain of A-Raf kinase (SEQ. ID No: 1) (P10398 other isoform, or with tags, fused parts or gaps Y301D (already in the parent)/Y302D (already in the parent)): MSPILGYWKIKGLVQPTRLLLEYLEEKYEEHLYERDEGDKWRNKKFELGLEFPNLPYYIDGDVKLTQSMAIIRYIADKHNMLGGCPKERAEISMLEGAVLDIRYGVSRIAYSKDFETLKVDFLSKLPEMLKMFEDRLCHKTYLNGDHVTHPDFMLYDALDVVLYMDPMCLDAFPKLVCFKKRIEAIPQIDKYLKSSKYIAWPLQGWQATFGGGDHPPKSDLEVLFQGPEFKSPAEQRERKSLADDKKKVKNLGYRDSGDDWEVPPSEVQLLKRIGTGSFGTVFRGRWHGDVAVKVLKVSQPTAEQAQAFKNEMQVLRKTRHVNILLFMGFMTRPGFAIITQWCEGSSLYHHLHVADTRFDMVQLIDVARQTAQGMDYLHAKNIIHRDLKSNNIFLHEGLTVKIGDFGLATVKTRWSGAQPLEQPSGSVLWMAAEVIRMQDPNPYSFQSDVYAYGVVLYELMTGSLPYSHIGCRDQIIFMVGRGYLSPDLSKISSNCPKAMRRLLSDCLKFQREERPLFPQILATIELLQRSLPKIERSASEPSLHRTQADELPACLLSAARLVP
Chain of B-Raf (V600E) (SEQ. ID NO: 4) kinase (P15056 416-766 V600E): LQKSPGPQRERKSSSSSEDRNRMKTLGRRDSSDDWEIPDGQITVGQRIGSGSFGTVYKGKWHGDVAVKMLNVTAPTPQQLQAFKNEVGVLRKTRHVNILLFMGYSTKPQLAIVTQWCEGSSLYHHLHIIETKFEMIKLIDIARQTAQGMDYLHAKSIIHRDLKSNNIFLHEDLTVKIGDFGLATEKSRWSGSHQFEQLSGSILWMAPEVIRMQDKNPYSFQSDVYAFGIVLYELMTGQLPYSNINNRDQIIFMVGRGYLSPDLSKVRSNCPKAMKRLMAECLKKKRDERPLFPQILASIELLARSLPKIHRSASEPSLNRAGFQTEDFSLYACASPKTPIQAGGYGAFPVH
Chain of B-Raf kinase (SEQ. ID NO: 2) (P15056 416-766): as the sequence (P15056 416-766 V600E) above, with E185V counted along it

SMILES	IC50 [1]	IC50 [2]	IC50 [3]	IC50 [4]
CC(=O)Nc1cc(-c2cc(-c3cc(NC(=O)c4ccnc(C(F)(F)F)c4)ccc3C)cc(C(C)(C)O)n2)ccn1 [Example 33]	100 to 500 nM	1000 to 10000 nM	1000 to 10000 nM	≤ 100 nM
CC(=O)Nc1cc(-c2cc(-c3cc(NC(=O)c4ccnc(C(F)(F)F)c4)ccc3C)nn(C)c2=O)ccn1 [Example 34]	1000 to 10000 nM	1000 to 10000 nM	1000 to 10000 nM	1000 to 10000 nM
CNC(=O)c1cc(-c2cc(-c3cc(NC(=O)c4ccnc(C(F)(F)F)c4)ccc3C)nn(C)c2=O)ccn1 [Example 51]	1000 to 10000 nM	1000 to 10000 nM	1000 to 10000 nM	1000 to 10000 nM
CNC(=O)c1cc(-c2cc(-c3cc(NC(=O)c4ccnc(C(F)(F)F)c4)ccc3C)cc(=O)n2C)ccn1 [Example 67]	500 to 1000 nM	1000 to 10000 nM	1000 to 10000 nM	≤ 100 nM
Cc1ncc(NC(=O)c2ccnc(C(C)(C)C#N)c2)cc1-c1nccc(-c2ccnc3c2CC(=O)N3)n1 [Example 93]	500 to 1000 nM	1000 to 10000 nM	1000 to 10000 nM	100 to 500 nM
CNC(=O)c1cc(-c2cc(-c3cc(NC(=O)c4ccnc(C(F)F)c4)c(F)cc3C)cc(=O)n2C)ccn1 [Example 115]	1000 to 10000 nM	1000 to 10000 nM	1000 to 10000 nM	100 to 500 nM
COCCNc1cc(-c2cncc(-c3cc(NC(=O)c4ccnc(C(F)(F)F)c4)ccc3C)n2)ccn1 [Example 119]	100 to 500 nM	1000 to 10000 nM	100 to 500 nM	≤ 100 nM
CNC(=O)c1cc(-c2cc(-c3cc(NC(=O)c4cc(C(F)(F)F)ccn4)ccc3C)ccn2)ccn1 [Example 126]	≤ 100 nM	1000 to 10000 nM	100 to 500 nM	≤ 100 nM
COCC(=O)Nc1cc(-c2nccc(-c3cc(NC(=O)c4ccnc(C(F)(F)F)c4)ccc3C)n2)ccn1 [Example 137]	≤ 100 nM	1000 to 10000 nM	≤ 100 nM	≤ 100 nM
CNC(=O)c1cc(-c2cncc(-c3cc(NC(=O)c4cc(C(F)(F)F)cc(CN(C)C)n4)ccc3C)n2)ccn1 [Example 147]	100 to 500 nM	1000 to 10000 nM	500 to 1000 nM	≤ 100 nM
Cc1ccc(NC(=O)c2cc(C(F)(F)F)ccn2)cc1-c1cncc(-c2ccnc(NC(=O)C3CC3)c2)n1 [Example 167]	≤ 100 nM	1000 to 10000 nM	≤ 100 nM	≤ 100 nM
CNC(=O)c1cc(-c2cncc(-c3cc(NC(=O)c4ccnc(C(C)(C)C#N)c4)c(F)cc3C)n2)ccn1 [Example 170]	100 to 500 nM	1000 to 10000 nM	100 to 500 nM	≤ 100 nM
Cc1ccc(NC(=O)c2ccnc(C3(C#N)CC3)c2)cc1-c1cncc(-c2ccnc(NC(=O)C3CC3)c2)n1 [Example 183]	≤ 100 nM	100 to 500 nM	≤ 100 nM	≤ 100 nM
Cc1ccc(NC(=O)c2cc(C(F)(F)F)ccn2)cc1-c1ccnc(-c2ccnc(NC(=O)C3CC3)c2)n1 [Example 188]	≤ 100 nM	1000 to 10000 nM	≤ 100 nM	≤ 100 nM
Cc1ccc(NC(=O)c2ccnc(C(C)(C)C#N)c2)cc1-c1ccnc(-c2ccnc(NC(=O)C(C)(C)C)c2)c1 [Example 206]	100 to 500 nM	1000 to 10000 nM	100 to 500 nM	≤ 100 nM
COC(C)(C)C(=O)Nc1cc(-c2cccc(-c3cc(NC(=O)c4ccnc(C(C)(C)C#N)c4)cnc3C)c2)ncn1 [Example 208]	500 to 1000 nM	1000 to 10000 nM	1000 to 10000 nM	100 to 500 nM
COC(C)(C)C(=O)Nc1cc(-c2cc(-c3cc(NC(=O)c4ccnc(C(C)(C)C#N)c4)cnc3C)ccn2)ccn1 [Example 209]	500 to 1000 nM	1000 to 10000 nM	1000 to 10000 nM	100 to 500 nM
COC(C)(C)C(=O)Nc1cc(-c2cccc(-c3cc(NC(=O)c4ccnc(C(C)(C)C#N)c4)ccc3C)c2)ncn1 [Example 211]	500 to 1000 nM	1000 to 10000 nM	500 to 1000 nM	≤ 100 nM
Cc1ncc(NC(=O)c2ccnc(C(C)(C)C#N)c2)cc1-c1ccnc(-c2ccnc(NC(=O)C(C)(C)C)c2)c1 [Example 228]	100 to 500 nM	1000 to 10000 nM	100 to 500 nM	≤ 100 nM
Cc1ccc(NC(=O)c2ccnc(C(C)(C)F)c2)cc1-c1nccc(-c2ccnc(NC(=O)C3CC3)c2)n1 [Example 232]	≤ 100 nM	100 to 500 nM	≤ 100 nM	≤ 100 nM
CNC(=O)c1cc(-c2cccc(-c3cc(NC(=O)c4ccnc(C(C)(C)C#N)c4)ccc3C)n2)ccn1 [Example 234]	≤ 100 nM	1000 to 10000 nM	≤ 100 nM	≤ 100 nM
COC1(C(=O)Nc2cc(-c3cccc(-c4cc(NC(=O)c5ccnc(C(C)(C)C#N)c5)ccc4C)c3)ncn2)CC1 [Example 243]	100 to 500 nM	1000 to 10000 nM	500 to 1000 nM	≤ 100 nM
Cc1cc(F)c(NC(=O)c2ccnc(C(C)(C)C#N)c2)cc1-c1nccc(-c2ccnc(NC(=O)C3CC3)c2)n1 [Example 244]	≤ 100 nM	100 to 500 nM	≤ 100 nM	≤ 100 nM
CCOc1ncc(-c2cc(NC(=O)c3ccnc(C(C)(C)C#N)c3)ccc2C)cc1-c1ccnc(C(=O)NC)c1 [Example 260]	≤ 100 nM	1000 to 10000 nM	100 to 500 nM	≤ 100 nM
Cc1cc(C(=O)Nc2cnc(C)c(-c3nccc(-c4ccnc(NC(=O)C5CC5)c4)n3)c2)ccn1 [Example 296]	100 to 500 nM	1000 to 10000 nM	100 to 500 nM	≤ 100 nM
Cc1ncc(NC(=O)C2CCN(C)C2)cc1-c1nccc(-c2ccnc(NC(=O)C3CC3)c2)n1 (centres unmarked) [Example 334]	1000 to 10000 nM	1000 to 10000 nM	1000 to 10000 nM	1000 to 10000 nM
